Legend:
Test in all cases: relative viability (nuclei count vs DMSO), 5 days (fraction); higher = more cells survive
[1] = compound: C=C(c1ccc(C(=O)O)cc1)c1cc2c(cc1C)C(C)(C)CCC2(C)C [Bexarotene] + CC(=O)Nc1cccc(-n2c(=O)n(C3CC3)c(=O)c3c(Nc4ccc(I)cc4F)n(C)c(=O)c(C)c32)c1 [Trametinib] (partner 0.02 µM)
Summary of the method: (§1)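 Values are medians from duplicate plates. Each reflects relative viability, defined as the nuclei count of treated wells over that of vehicle wells. Lung cancer cell lines in 1536-well plates were pin-tool dosed one day after seeding with one drug alone or with a fixed anchor-drug dose plus five library-drug doses (not always all listed) in √10 steps, then fixed, stained and imaged at 4× after 5 days.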

[2] = compound: C=C(c1ccc(C(=O)O)cc1)c1cc2c(cc1C)C(C)(C)CCC2(C)C [Bexarotene] + N=C(N)NC(=N)NCCc1ccccc1 [Phenformin] (partner 250 µM)
Summary of the method: as §1

[3] = compound: C=C(c1ccc(C(=O)O)cc1)c1cc2c(cc1C)C(C)(C)CCC2(C)C [Bexarotene] + COc1cccc2cc(-c3nc([C@H]4CC[C@H](C(=O)O)CC4)n4ncnc(N)c34)[nH]c12 [OSI-027] (partner 0.5 µM)
Summary of the method: as §1

[4] = compound: C=C(c1ccc(C(=O)O)cc1)c1cc2c(cc1C)C(C)(C)CCC2(C)C [Bexarotene]
Summary of the method: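 Nuclei counted with MetaXpress define viability as the ratio of treated to vehicle wells, given as a median across plates. The lung cancer cell lines were in 1536-well plates, pinned with five √10-spaced library-drug doses and imaged at 4× after 5 days and Hoechst staining. Plates passed with control CV below 25% and at least one doubling.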

| Cell Line | relative viability ([1]; first compound 0.08 µM) | relative viability ([1]; first compound 0.253 µM) | relative viability ([1]; first compound 0.8 µM) | relative viability ([1]; first compound 2.53 µM) | relative viability ([1]; first compound 8 µM) | relative viability ([2]; first compound 0.08 µM) | relative viability ([2]; first compound 0.253 µM) | relative viability ([2]; first compound 0.8 µM) | relative viability ([2]; first compound 2.53 µM) | relative viability ([2]; first compound 8 µM) | relative viability ([3]; first compound 0.08 µM) | relative viability ([3]; first compound 0.253 µM) | relative viability ([3]; first compound 0.8 µM) | relative viability ([3]; first compound 2.53 µM) | relative viability ([3]; first compound 8 µM) | relative viability ([4]; 0.08 µM) | relative viability ([4]; 0.253 µM) | relative viability ([4]; 0.8 µM) | relative viability ([4]; 2.53 µM) | relative viability ([4]; 8 µM) |
| --- | --- | --- | --- | --- | --- | --- | --- | --- | --- | --- | --- | --- | --- | --- | --- | --- | --- | --- | --- | --- |
| LOU-NH91 | 0.81 | 0.856 | 0.807 | 0.795 | 0.759 | 0.687 | 0.673 | 0.595 | 0.6 | 0.49 | 0.709 | 0.718 | 0.606 | 0.599 | 0.643 | 1.04 | 0.957 | 0.952 | 0.869 | 0.926 |
| LU99A | 0.659 | 0.531 | 0.608 | 0.52 | 0.417 | 1.24 | 0.89 | 0.862 | 0.829 | 0.912 | 0.325 | 0.361 | 0.286 | 0.316 | 0.315 | 1.33 | 1.07 | 0.977 | 1.06 | 1.09 |
| LXF-289 | 0.797 | 0.832 | 0.792 | 0.755 | 0.747 | 0.591 | 0.544 | 0.523 | 0.516 | 0.508 | 0.912 | 0.925 | 0.757 | 0.572 | 0.731 | 1.19 | 1.18 | 1.16 | 1.17 | 1.29 |
| NCI-H23 | 0.447 | 0.435 | 0.395 | 0.364 | 0.347 | 0.854 | 0.759 | 0.694 | 0.763 | 0.712 | 0.607 | 0.597 | 0.6 | 0.55 | 0.461 | 1.17 | 0.927 | 0.952 | 0.82 | 0.899 |
| NCI-H322M | 0.578 | 0.443 | 0.534 | 0.501 | 0.508 | 0.969 | 0.825 | 0.814 | 0.775 | 0.789 | 0.698 | 0.351 | 0.637 | 0.585 | 0.623 | 1.08 | 1.03 | 0.937 | 0.988 | 1.01 |
| NCI-H358 | 0.134 | 0.12 | 0.111 | 0.119 | 0.123 | 0.48 | 0.396 | 0.372 | 0.33 | 0.39 | 0.764 | 0.774 | 0.685 | 0.798 | 0.633 | 1.04 | 1.14 | 0.871 | 0.974 | 1.05 |
| NCI-H1299 | – | – | – | – | – | – | – | – | – | – | – | – | – | – | – | 1.01 | 1.12 | 1.06 | 1.01 | 1.02 |
| NCI-H1563 | – | – | – | – | – | 0.682 | 0.665 | 0.669 | 0.674 | 0.619 | 0.842 | 0.787 | 0.813 | 0.897 | 0.849 | 1.03 | 0.911 | 0.868 | 0.938 | 0.987 |
| NCI-H1648 | 0.448 | 0.483 | 0.559 | 0.469 | 0.529 | – | – | – | – | – | 0.272 | 0.262 | 0.27 | 0.225 | 0.255 | 1.02 | 0.971 | 0.645 | 0.735 | 0.708 |
| NCI-H1703 | – | – | – | – | – | – | – | – | – | – | – | – | – | – | – | 0.944 | 0.968 | 0.759 | 0.647 | 0.701 |

Source: the supplement of paper PMC10307832
